From patent publication US20060030585A1, “Tricyclic delta-opioid modulators” (priority 2004, published 2006)
Where two headings read alike, the source gives them in different places.

Tests used:
delta opioid receptor = delta opioid receptor (Rattus norvegicus, UniProt P33533); assay: Rat brain delta opioid receptor binding assay ([3H]DPDPE); details: Rat delta opioid receptor binding constant, rat forebrain membranes, ~4 nM [3H]DPDPE
Procedure: Rat Brain Delta Opioid Receptor Binding Assay
Procedure: Male, Sprague Dawley rats (150-250 g, VAF, Charles River, Kingston, N.Y.) were killed by CO2, and their brains removed and placed immediately in ice cold Tris HCl buffer (50 mM, pH 7.4). The forebrains were separated from the remainder of the brain by a coronal transection, beginning dorsally at the colliculi and passing ventrally through the midbrain-pontine junction. After dissection, the forebrains were homogenized in Tris buffer in a Teflon®-glass homogenizer. The homogenate was diluted to a concentration of 1 g of forebrain tissue per 80 mL Tris and centrifuged at 39,000×g for 10 min. The pellet was resuspended in the same volume of Tris buffer containing 5 mM MgCl2 with several brief pulses from a Polytron homogenizer. This particulate preparation was used for the delta opioid binding assays. Following incubation with the delta selective peptide ligand ˜4 nM [^3H]DPDPE at 25° C. for 2.5 h in a 96-well plate with total volume of 1 mL, the plate contents were filtered through Wallac filtermat B sheets on a Tomtec 96-well harvester. The filters were rinsed three times with 2 mL of 10 mM HEPES (pH 7.4), and dried in a 650 W microwave oven for 1.75 min twice. To each sample area 2×50 μL of Betaplate Scint scintillation fluid (LKB) was added and the radioactivity quantified on a LKB (Wallac) 1205 BetaPlate liquid scintillation counter.
(§1) Analysis: The data from the scintillation counter were used to calculate either the % inhibition compared to control binding (when only a single concentration of test compound was evaluated) or a Ki value (when a range of concentrations was tested). Percent inhibition was calculated as: [(total dpm-test compound dpm)/(total dpm-nonspecific dpm)]*100. Kd and Ki values were calculated using GraphPad PRISM data analysis program.

mu opioid receptor = mu opioid receptor (Rattus norvegicus, UniProt P33535); assay: Rat brain mu opioid receptor binding assay ([3H]DAMGO); details: Rat mu opioid receptor binding constant, rat forebrain membranes, ~0.8 nM [3H]DAMGO
Chain of mu opioid receptor (P33535 whole entry): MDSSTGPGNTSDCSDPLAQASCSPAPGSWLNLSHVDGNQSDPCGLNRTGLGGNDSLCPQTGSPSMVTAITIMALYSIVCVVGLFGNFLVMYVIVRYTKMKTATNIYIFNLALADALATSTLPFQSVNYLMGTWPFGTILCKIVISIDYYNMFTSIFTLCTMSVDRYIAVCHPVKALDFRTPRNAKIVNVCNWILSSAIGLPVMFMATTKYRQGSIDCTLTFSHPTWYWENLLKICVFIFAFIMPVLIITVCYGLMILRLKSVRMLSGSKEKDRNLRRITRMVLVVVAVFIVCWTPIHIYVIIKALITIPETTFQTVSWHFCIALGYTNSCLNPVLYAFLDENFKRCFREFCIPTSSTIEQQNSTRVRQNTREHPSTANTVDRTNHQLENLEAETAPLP
Procedure: Rat Brain Mu Opioid Receptor Binding Assay
Procedure: Male, Sprague Dawley rats (150-250 g, VAF, Charles River, Kingston, N.Y.) were killed by CO2, and their brains removed and placed immediately in ice cold Tris HCl buffer (50 mM, pH 7.4). The forebrains were separated from the remainder of the brain by a coronal transection, beginning dorsally at the colliculi and passing ventrally through the midbrain-pontine junction. After dissection, the forebrains were homogenized in Tris buffer in a Teflon®-glass homogenizer. The homogenate was diluted to a concentration of 1 g of forebrain tissue per 80 mL Tris and centrifuged at 39,000×g for 10 min. The pellet was resuspended in the same volume of Tris buffer containing 5 mM MgCl2 with several brief pulses from a Polytron homogenizer. This particulate preparation was used for the delta opioid binding assays.
as §1, with “concentrations” for “concentrations was”

Chain of delta opioid receptor (P33533 whole entry): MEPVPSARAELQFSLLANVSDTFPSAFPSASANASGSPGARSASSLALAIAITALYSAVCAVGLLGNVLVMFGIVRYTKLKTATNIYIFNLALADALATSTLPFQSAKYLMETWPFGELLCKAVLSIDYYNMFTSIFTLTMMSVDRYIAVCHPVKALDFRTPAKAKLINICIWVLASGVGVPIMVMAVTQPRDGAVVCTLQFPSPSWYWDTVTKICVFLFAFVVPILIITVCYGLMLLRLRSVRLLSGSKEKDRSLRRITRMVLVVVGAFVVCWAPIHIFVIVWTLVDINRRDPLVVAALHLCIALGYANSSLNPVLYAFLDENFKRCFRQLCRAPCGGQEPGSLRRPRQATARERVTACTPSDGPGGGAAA

CN(C(=O)c1ccc2c(c1)Oc1ccccc1C2=C1CC2CCC(C1)N2)C1CCCCC1 [Cpd 22]
Ki (delta opioid receptor; DOR Ki): 54.9 nM
Ki (mu opioid receptor; MOR Ki): 1120 nM

Brc1ccc2c(c1)Sc1ccccc1C2=C1CC2CCC(C1)N2 [Cpd 84, 3-(3-Bromo-thioxanthen-9-ylidene)-8-aza-bicyclo[3.2.1]octane]
Ki (delta opioid receptor; DOR Ki): 2900 nM
Ki (mu opioid receptor; MOR Ki): > 10000 nM

O=C(NC(CO)Cc1ccccc1)c1ccc2c(c1)Oc1ccccc1C2=C1CC2CCC(C1)N2 (single isomer, unassigned) [Cpd 27]
Ki (delta opioid receptor; DOR Ki): 100 nM
Ki (mu opioid receptor; MOR Ki): 100 nM

O=C(c1ccc2c(c1)Oc1ccccc1C2=C1CC2CCC(C1)N2)N1CCC(O)C1 (single isomer, unassigned) [Cpd 69]
Ki (delta opioid receptor; DOR Ki): 105 nM
Ki (mu opioid receptor; MOR Ki): 2060 nM

CC(=O)Nc1ccccc1-c1ccc2c(c1)Oc1ccccc1C2=C1CC2CCC(C1)N2C(=O)C(F)(F)F [Cpd 131]
Ki (delta opioid receptor; read-out: DOR Ki): > 10000 nM
Ki (mu opioid receptor; read-out: MOR Ki): > 10000 nM

CCc1cnc(-c2ccc3c(c2)Oc2ccccc2C3=C2CC3CCC(C2)N3)[nH]1 [Cpd 26, 3-[3-(5-Ethyl-1 H-imidazol-2-yl)-xanthen-9-ylidene]-8-aza-bicyclo[3.2.1]-octane]
Ki (delta opioid receptor; DOR Ki): 81 nM
Ki (mu opioid receptor; MOR Ki): 249 nM

COc1cccc2c1Oc1cc(-c3noc(=O)[nH]3)ccc1C2=C1CC2CCC(C1)N2 [Cpd 132, 3-[9-(8-Aza-bicyclo[3.2.1]oct-3-ylidene)-5-methoxy-9H-xanthen-3-yl]-4H-[1,2,4]oxadiazol-5-one]
Ki (delta opioid receptor; DOR Ki): 0.32 nM
Ki (mu opioid receptor; MOR Ki): 254 nM

CC(=O)Nc1ccccc1-c1ccc2c(c1)Sc1ccccc1C2=C1CC2CCC(C1)N2Cc1ccccn1 [Cpd 121]
Ki (delta opioid receptor; DOR Ki): 3.7 nM
Ki (mu opioid receptor; read-out: MOR Ki): 137 nM

O=C(NC1CCCC1)c1ccc2c(c1)Oc1ccccc1C2=C1CC2CCC(C1)N2 [Cpd 45]
Ki (delta opioid receptor; DOR Ki): 673 nM
Ki (mu opioid receptor; MOR Ki): 3100 nM

CC(C)CNC(=N)c1ccc2c(c1)Oc1ccccc1C2=C1CC2CCC(C1)N2 [Cpd 49]
Ki (delta opioid receptor; DOR Ki): 1330 nM
Ki (mu opioid receptor; MOR Ki): 4020 nM

CC(C)NC(=N)c1ccc2c(c1)Oc1ccccc1C2=C1CC2CCC(C1)N2 [Cpd 39]
Ki (delta opioid receptor; DOR Ki): 441 nM
Ki (mu opioid receptor; MOR Ki): 5170 nM

CN(Cc1ccccc1)C(=O)c1ccc2c(c1)Oc1ccccc1C2=C1CC2CCC(C1)N2 [Cpd 52]
Ki (delta opioid receptor; DOR Ki): 2730 nM
Ki (mu opioid receptor; MOR Ki): 1830 nM

N#Cc1ccc2c(c1)Oc1ccccc1C2=C1CC2CCC(C1)N2 [Cpd 77]
Ki (delta opioid receptor; read-out: DOR Ki): 2710 nM
Ki (mu opioid receptor; read-out: MOR Ki): 2480 nM

O=C(c1ccc2c(c1)Oc1ccccc1C2=C1CC2CCC(C1)N2)N1CCC(O)C1 (single isomer, unassigned) [Cpd 70]
Ki (delta opioid receptor; DOR Ki): 63 nM
Ki (mu opioid receptor; MOR Ki): 1660 nM

c1ccc2c(c1)Oc1cc(C3=NCCCN3)ccc1C2=C1CC2CCC(C1)N2 [Cpd 41]
Ki (delta opioid receptor; DOR Ki): 464 nM
Ki (mu opioid receptor; MOR Ki): 875 nM

O=c1[nH]c(-c2ccc3c(c2)Oc2c(O)cccc2C3=C2CC3CCC(C2)N3)no1 [Cpd 134, 3-[9-(8-Aza-bicyclo[3.2.1]oct-3-ylidene)-5-hydroxy-9H-xanthen-3-yl]-4H-[1,2,4]oxadiazol-5-one]
Ki (delta opioid receptor; DOR Ki): 0.12 nM
Ki (mu opioid receptor; MOR Ki): 2 nM

Fc1cccc(-c2ccc3c(c2)Oc2ccccc2C3=C2CC3CCC(C2)N3)c1 [Cpd 51]
Ki (delta opioid receptor; DOR Ki): 2440 nM
Ki (mu opioid receptor; MOR Ki): 16500 nM

OCc1cccc(-c2ccc3c(c2)Oc2ccccc2C3=C2CC3CCC(C2)N3)c1 [Cpd 23]
Ki (delta opioid receptor; DOR Ki): 75 nM
Ki (mu opioid receptor; MOR Ki): 3510 nM

Nc1ccccc1-c1ccc2c(c1)Oc1ccccc1C2=C1CC2CCC(C1)N2 [Cpd 25]
Ki (delta opioid receptor; DOR Ki): 77.4 nM
Ki (mu opioid receptor; MOR Ki): 1660 nM

COc1cccc2c1Oc1cc(-c3ccoc3)ccc1C2=C1CC2CCC(C1)N2 [Cpd 105]
Ki (delta opioid receptor; read-out: DOR Ki): 88 nM
Ki (mu opioid receptor; read-out: MOR Ki): 497 nM

CC(=O)Nc1ccccc1-c1ccc2c(c1)Sc1ccccc1C2=C1CC2CCC(C1)N2C [Cpd 118]
Ki (delta opioid receptor; read-out: DOR Ki): 612 nM
Ki (mu opioid receptor; read-out: MOR Ki): 2070 nM

COc1cccc2c1Oc1cc(Br)ccc1C2=C1CC2CCC(C1)N2 [Cpd 79]
Ki (delta opioid receptor; DOR Ki): 192 nM
Ki (mu opioid receptor; MOR Ki): 4780 nM

c1ccc2c(c1)Oc1cc(C3=NCCN3)ccc1C2=C1CC2CCC(C1)N2 [Cpd 33]
Ki (delta opioid receptor; DOR Ki): 224 nM
Ki (mu opioid receptor; MOR Ki): 315 nM

CC(C)(C)OC(=O)N1C2CCC1CC(=C1c3ccccc3Oc3cc(C(=O)NCCO)ccc31)C2 [Cpd 122]
Ki (delta opioid receptor; read-out: DOR Ki): > 10000 nM
Ki (mu opioid receptor; read-out: MOR Ki): > 10000 nM

NC(=NO)c1ccc2c(c1)Oc1ccccc1C2=C1CC2CCC(C1)N2 [Cpd 24]
Ki (delta opioid receptor; DOR Ki): 76.8 nM
Ki (mu opioid receptor; MOR Ki): 621 nM

CN(C)C(=O)CN(C)C(=O)c1ccc2c(c1)Oc1ccccc1C2=C1CC2CCC(C1)N2 [Cpd 68]
Ki (delta opioid receptor; read-out: DOR Ki): 8.5 nM
Ki (mu opioid receptor; read-out: MOR Ki): 2390 nM

CC(C)CN(CC(C)C)C(=N)c1ccc2c(c1)Oc1ccccc1C2=C1CC2CCC(C1)N2 [Cpd 28]
Ki (delta opioid receptor; DOR Ki): 107 nM
Ki (mu opioid receptor; MOR Ki): 3100 nM

CN(CCc1ccccc1)C(=O)c1ccc2c(c1)Oc1ccccc1C2=C1CC2CCC(C1)N2 [Cpd 17]
Ki (delta opioid receptor; DOR Ki): 37 nM
Ki (mu opioid receptor; MOR Ki): 37 nM

Oc1cccc(-c2ccc3c(c2)Oc2ccccc2C3=C2CC3CCC(C2)N3)c1 [Cpd 38]
Ki (delta opioid receptor; DOR Ki): 418 nM
Ki (mu opioid receptor; MOR Ki): 706 nM

CC(=O)Nc1ccccc1-c1ccc2c(c1)Oc1ccccc1C2=C1CC2CCC(C1)N2C(=O)C(F)(F)F [Cpd 130]
Ki (delta opioid receptor; read-out: DOR Ki): > 10000 nM
Ki (mu opioid receptor; read-out: MOR Ki): > 10000 nM

O=C(N1C2CCC1CC(=C1c3ccccc3Oc3cc(-c4cccnc4)ccc31)C2)C(F)(F)F [Cpd 129]
Ki (delta opioid receptor; read-out: DOR Ki): > 10000 nM
Ki (mu opioid receptor; read-out: MOR Ki): > 10000 nM

CN(CCO)C(=O)c1ccc2c(c1)Oc1ccccc1C2=C1CC2CCC(C1)N2 [Cpd 61, 9-(8-Aza-bicyclo[3.2.1]oct-3-ylidene)-9H-xanthene-3-carboxylic acid (2-hydroxy-ethyl)-methyl-amide]
Ki (delta opioid receptor; DOR Ki): 6.25 nM
Ki (mu opioid receptor; MOR Ki): 876 nM

c1ccc2c(c1)Sc1cc(-c3nnn[nH]3)ccc1C2=C1C[C@H]2CC[C@@H](C1)N2 (single isomer, unassigned) [Cpd 102, (1RS,5SR)-3-[3-(1H-Tetrazol-5-yl)-thioxanthen-9-ylidene]-8-aza-bicyclo[3.2.1]octane]
Ki (delta opioid receptor; DOR Ki): 54 nM
Ki (mu opioid receptor; MOR Ki): 2770 nM

CC(=O)Nc1cccc(-c2ccc3c(c2)Oc2ccccc2C3=C2CC3CCC(C2)N3)c1 [Cpd 20]
Ki (delta opioid receptor; DOR Ki): 46.6 nM
Ki (mu opioid receptor; MOR Ki): 2800 nM

COc1cccc2c1Oc1cc(-c3cnc4ccccc4c3)ccc1C2=C1CC2CCC(C1)N2 [Cpd 104]
Ki (delta opioid receptor; read-out: DOR Ki): 246 nM
Ki (mu opioid receptor; read-out: MOR Ki): 1710 nM

CC(=O)Nc1ccccc1-c1ccc2c(c1)Sc1ccccc1C2=C1CC2CCC(C1)N2 [Cpd 113]
Ki (delta opioid receptor; DOR Ki): 90 nM
Ki (mu opioid receptor; MOR Ki): 1520 nM

O=C(N1C2CCC1CC(=C1c3ccccc3Oc3cc(-c4cccnc4)ccc31)C2)C(F)(F)F [Cpd 128]
Ki (delta opioid receptor; read-out: DOR Ki): > 10000 nM
Ki (mu opioid receptor; read-out: MOR Ki): > 10000 nM

O=C(NCc1ccccc1)c1ccc2c(c1)Oc1ccccc1C2=C1CC2CCC(C1)N2 [Cpd 40]
Ki (delta opioid receptor; read-out: DOR Ki): 456 nM
Ki (mu opioid receptor; read-out: MOR Ki): 3090 nM

N=C(c1ccc2c(c1)Oc1ccccc1C2=C1CC2CCC(C1)N2)N1CCCCC1 [Cpd 43]
Ki (delta opioid receptor; DOR Ki): 496 nM
Ki (mu opioid receptor; MOR Ki): 5340 nM

CCOC(=O)N1C2CCC1CC(=C1c3ccccc3Oc3cc(C(=O)N(C)CCO)ccc31)C2 [Cpd 75]
Ki (delta opioid receptor; read-out: DOR Ki): 4470 nM
Ki (mu opioid receptor; read-out: MOR Ki): 10000 nM

c1ccc2c(c1)Oc1cc(-c3ccncc3)ccc1C2=C1CC2CCC(C1)N2 [Cpd 29]
Ki (delta opioid receptor; DOR Ki): 133 nM
Ki (mu opioid receptor; MOR Ki): 1820 nM

COc1cccc(C2CCCN(C(=O)c3ccc4c(c3)Oc3ccccc3C4=C3CC4CCC(C3)N4)C2)c1 (centres unmarked) [Cpd 65]
Ki (delta opioid receptor; DOR Ki): 88 nM
Ki (mu opioid receptor; MOR Ki): 317 nM

O=C(Nc1ccccc1)c1ccc2c(c1)Oc1ccccc1C2=C1CC2CCC(C1)N2 [Cpd 47]
Ki (delta opioid receptor; DOR Ki): 813 nM
Ki (mu opioid receptor; MOR Ki): 1200 nM

c1ccc2c(c1)Oc1cc(-c3nnn[nH]3)ccc1C2=C1CC2CCC(C1)N2 [Cpd 81]
Ki (delta opioid receptor; read-out: DOR Ki): 0.5 nM
Ki (mu opioid receptor; read-out: MOR Ki): 261 nM

O=C(NC1CCC(c2ccccc2)CC1)c1ccc2c(c1)Oc1ccccc1C2=C1CC2CCC(C1)N2 (centres unmarked) [Cpd 34]
Ki (delta opioid receptor; read-out: DOR Ki): 247 nM
Ki (mu opioid receptor; read-out: MOR Ki): 6240 nM

COC(=O)[C@H](CO)NC(=O)c1ccc2c(c1)Oc1ccccc1C2=C1CC2CCC(C1)N2 [Cpd 37]
Ki (delta opioid receptor; DOR Ki): 412 nM
Ki (mu opioid receptor; MOR Ki): 950 nM
